Reference: patent publication US9221827B2, “Antimicrobial compounds and methods of making and using the same” (Melinta Therapeutics, Inc., priority 2011, dated 2015)

Test system: Escherichia coli strain ATCC25922
Assay: standard microdilution assay to determine minimum inhibitory concentrations (MICs)
Type: cell-based
Procedure, shortened: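 MICs come from CLSI-guided microdilution in 100 μl, run alongside reference-strain performance standards. Values appear as "+" or "−" relative to 16 micrograms/ml, with "N/A" marking missing data.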

[1] = Escherichia coli strain ATCC25922, standard microdilution assay
[2] = Escherichia coli strain ATCC25922, microdilution

Compound | E. coli ATCC25922 MIC [1] | E. coli ATCC25922 MIC [2]
CC(NCCCNC(=N)N)c1ccc(-n2cc3cc(-c4cc(CCCC(N)CO)cc(Cl)c4F)[nH]c3nc2=O)cc1 (centres unmarked) [Compound 391] | + (a “+” indicates that the compound has an MIC value of 16 micrograms/ml or less) | –
C[C@H](N)COCc1cc(SC(F)(F)F)cc(-c2cc3cn(-c4ccc(CNCCCNC(=N)N)cc4)c(=O)nc3[nH]2)c1 [Compound 344] | + (a “+” indicates that the compound has an MIC value of 16 micrograms/ml or less) | –
C[C@H](NCCCNC(=N)N)c1ccc(-n2cc3cc(-c4cc(CCC5(CN)CC5)cc(SC(F)(F)F)c4)[nH]c3nc2=O)cc1 [Compound 310] | – | + (a “+” indicates that the compound has an MIC value of 16 micrograms/ml or less)
C=C[C@H](NCCCNC(=N)N)c1ccc(-n2cc3cc(-c4cc(CCC[C@H](C)N)cc(SC(F)(F)F)c4)[nH]c3nc2=O)cc1 [Compound 473] | – | + (a “+” indicates that the compound has an MIC value of 16 micrograms/ml or less)
C[C@H](NCCCNC(=N)N)c1ccc(-n2cc3cc(-c4cc(COCCN)cc(OC(F)(F)F)c4)[nH]c3nc2=O)cc1 [Compound 70] | – | + (a “+” indicates that the compound has an MIC value of 16 micrograms/ml or less)
N=C(N)NCCCNCc1ccc(-n2cc3cc(-c4cc(C5CCC(CN)CC5)cc(C(F)(F)F)c4)[nH]c3nc2=O)cc1 (mixture of isomers) [Compound 429] | + (a “+” indicates that the compound has an MIC value of 16 micrograms/ml or less) | –
CC(C)(N)CCc1cc(-c2cc3cn(-c4ccc(CNCCCNC(=N)N)cc4)c(=O)nc3[nH]2)cc(C(F)(F)F)c1 [Compound 259] | – | + (a “+” indicates that the compound has an MIC value of 16 micrograms/ml or less)
CC(C)(N)CCCc1cc(SC(F)(F)F)cc(-c2cc3cn(-c4ccc(CN)cc4)c(=O)nc3[nH]2)c1 [Compound 335] | + (a “+” indicates that the compound has an MIC value of 16 micrograms/ml or less) | –
C[C@H](NCCCNC(=N)N)c1ccc(-n2cc3cc(-c4cc(CC5CC(N)C5)cc(C(F)(F)F)c4)[nH]c3nc2=O)cc1 (some centres unmarked) [Compound 325] | – | + (a “+” indicates that the compound has an MIC value of 16 micrograms/ml or less)
C[C@H](N)CCCc1cc(-c2cc3cn(-c4ccc(CN(C)CCCNC(=N)N)cc4)c(=O)nc3[nH]2)cc(C(F)(F)F)c1 [Compound 339] | + (a “+” indicates that the compound has an MIC value of 16 micrograms/ml or less) | –
C[C@H](N)CCCc1cc2c(c(-c3cc4cn(-c5ccc([C@H](C)NCCCNC(=N)N)cc5)c(=O)nc4[nH]3)c1)COC2 [Compound 441] | + (a “+” indicates that the compound has an MIC value of 16 micrograms/ml or less) | –
CC[C@H](NCCCNC(=N)N)c1ccc(-n2cc3cc(-c4cc(CCC[C@H](C)N)cc(Cl)c4F)[nH]c3nc2=O)cc1 [Compound 392] | + (a “+” indicates that the compound has an MIC value of 16 micrograms/ml or less) | –
CC(C)c1cc(CCCCN)cc(-c2cc3cn(-c4ccc([C@H](C)NCCCNC(=N)N)cc4)c(=O)nc3[nH]2)c1 [Compound 78] | – | + (a “+” indicates that the compound has an MIC value of 16 micrograms/ml or less)
C[C@H](N)CCCc1cc(-c2cc3cn(-c4ccc([C@H](C)NCCCNC(=N)N)cc4)c(=O)nc3[nH]2)c(F)c(C2CCOC2)c1 (some centres unmarked) [Compound 466] | + (a “+” indicates that the compound has an MIC value of 16 micrograms/ml or less) | –
N=C(N)NCCCNCc1ccc(-n2cc3cc(-c4cc(CCC5(CN)CC5)cc(SC(F)(F)F)c4)[nH]c3nc2=O)cc1 [Compound 307] | – | + (a “+” indicates that the compound has an MIC value of 16 micrograms/ml or less)
N=C(N)NCCCCc1cc(F)c(Cl)c(-c2cc3cn(-c4ccc(CNCCCNC(=N)N)cc4)c(=O)nc3[nH]2)c1 [Compound 38] | – | + (a “+” indicates that the compound has an MIC value of 16 micrograms/ml or less)
C[C@H](NCCCNC(=N)N)c1ccc(-n2cc3cc(-c4cc(CCCC(C)(C)N)cc(OC(F)(F)F)c4)[nH]c3nc2=O)cc1 [Compound 264] | – | + (a “+” indicates that the compound has an MIC value of 16 micrograms/ml or less)
